Assays:
[1] = Equilibration in solvents and buffers: form conversion; conditions: water / aqueous solutions
[2] = Solution stability (HPLC); type: physicochemical
Method: (§1) All samples were prepared/diluted to a concentration of 0.2 mg/mL in methanol prior to analysis by HPLC. A freshly prepared sample of each salt was used as the reference standard for external standard calibration analysis.

[3] = Intrinsic dissolution rate, rotation disk method; type: physicochemical; conditions: for Intrinsic Dissolution Rate: 37° C., 200 r.p.m.
Summary of the method: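 Pellets of drug substance dissolved by rotating disk at 200 r.p.m. into a 500 mL vessel at 37 °C. Dissolved drug monitored continuously by recirculating the medium through a UV cell.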

[4] = Solubility, 24-hour equilibration at room temperature; type: physicochemical; conditions: for Solubility: approx. at 25° C.
Summary of the method: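 20-50 mg sample in 1 ml solvent, equilibrated 24 h at room temperature. Dissolved amount measured gravimetrically or by UV-VIS, and pH of the clear solution recorded; salts may dissociate to free form, affecting solubility and pH.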

[5] = pH of saturated solution or 1% suspension in water; type: physicochemical; conditions: room temperature
Method: pH Value: The pH at room temperature of a saturated solution or 1% suspension of the drug substance in water was recorded.

[6] = Stability of mixtures with excipients; type: physicochemical
Method: as §1

Solid-state stability = type: physicochemical; conditions: for Bulk stability (XRPD): 1 week
Method: as §1

[7] = pH of saturated solution or 1% suspension in water; type: physicochemical; conditions: In pH = 6.8 buffer
[8] = 2 mg/mL in methanol, 1 week at 50° C.
[9] = 2 mg/mL in water, 1 week at 50° C.
[10] = 2% in 0.5% HPMC 4000, 1 day at RT
[11] = 2% in 0.5% Klucel HF, 1 day at RT
[12] = 2% in 0.8% Tween 80, 1 day at RT
[13] = 5% solution, 1 day at RT (diluted 1:100 in pH 6.8 buffer)
[14] = Mixture 1: 50% PVP + 50% Crospovidone, 50° C./75% r.h., 2 weeks
[15] = Mixture 2: 50% Starch 1500 + 5% MCC 102, 50° C./75% r.h., 2 weeks
[16] = Mixture 3: 5% PVP + 5% Crospovidone + 10% Starch 1500 + 80% MCC 102, 50° C./75% r.h., 2 weeks
[17] = Mixture 4: 99% Lactose + 1% BHT/BHA, 50° C./75% r.h., 2 weeks
[18] = Mixture 5: 99% Mannitol + 1% BHT/BHA, 50° C./75% r.h., 2 weeks
[19] = Mixture 6: 50% Mannitol + 47% HPCLH21 + 1% BHT/BHA + 2% Magnesium Stearate, 50° C./75% r.h., 2 weeks
[20] = Mixture 7: 50% Cetyl Alcohol + 49% HPCLH21 + 1% Magnesium Stearate, 50° C./75% r.h., 2 weeks
[21] = Bulk stability, 2 weeks, 50° C.
[22] = Bulk stability, 2 weeks, 50° C./20% water
[23] = Bulk stability, 2 weeks, 50° C./75% r.h.
[24] = Light study, 1200 kLux (300-800 nm)

SMILES: CS(=O)(=O)O.Cc1[nH]c2ccccc2c1CCNCc1ccc(/C=C/C(=O)NO)cc1 [Mesylate, 1:1 mesylate salt of N-hydroxy-3-[4-[[[2-(2-methyl-1H-indol-3-yl)ethyl]amino]methyl]phenyl]-2E-2-propenamide]
- conversion upon equilibration [1]: polymorphic transformation
- pH of initial mixture ([2]; 2 mg/mL in 100 mM lactate buffer, pH 3.5): 3.48
- % DP (total degradation products) [2, 8]: 0.62 % area
- assay [2, 8]: [101.2]
- pH of initial mixture ([2]; 2 mg/mL in water): 6.55
- % DP (total degradation products) [2, 9]: 1.16 % area
- assay [2, 9]: [99.30]
- % DP (total degradation products) ([2]; 2 mg/mL, 100 mM lactate buffer pH 3.5, 1 week at 50° C.): 1.60 % area
- assay ([2]; 2 mg/mL, 100 mM lactate buffer pH 3.5, 1 week at 50° C., external standard): [99.25]
- % DP (total degradation products) ([2]; 2% in 0.5% CMC, 1 day at RT): 0.74 % area
- CL (appearance) ([2]; 2% in 0.5% CMC, 1 day at RT): A↓↓
- assay ([2]; 2% in 0.5% CMC, 1 day at RT): [79.72]
- % DP (total degradation products) [2, 10]: 0.66 % area
- assay [2, 10]: [97.30]
- % DP (total degradation products) [2, 11]: 0.66 % area
- assay [2, 11]: [97.63]
- % DP (total degradation products) [2, 12]: 0.63 % area
- assay [2, 12]: [98.05]
- % DP (total degradation products) [2, 13]: 0.78 % area
- assay [2, 13]: [99.30]
- stability characteristics, in words ([2]; both in solution and in the solid state): very good stability
- Unstressed (% Area) ([2]; unstressed baseline of the stability study): 99.30% Area
- intrinsic dissolution (rate), in words [3]: high
- Intrinsic Dissolution Rate ([3]; HCl 0.1N): 6.51 mg min^−1 cm^−2
- Intrinsic Dissolution Rate ([3]; Water, free base pellet disintegrated, not true intrinsic rate): 10.17 mg min^−1 cm^−2
- aqueous solubility [4]: 12900 µg/mL
- solubility in methanol and ethanol, in words [4]: high
- solubility in other common / remaining organic solvents, in words [4]: appreciable
- Solubility ([4]; 0.1N HCl): 600 µg/mL
- Solubility ([4]; 2-Propanol): 2200 µg/mL
- Solubility ([4]; Acetone): 3000 µg/mL
- Solubility ([4]; Ethanol): 14600 µg/mL
- Solubility ([4]; Ethyl acetate): 6400 µg/mL
- Solubility ([4]; Methanol): >115000 µg/mL
- Solubility ([4]; Propylene glycol): 46500 µg/mL
- Solubility ([4]; Water): 12900 µg/mL
- behaviour of clear aqueous solutions on storage ([4]; concentration below the reported solubility, precipitate found to be the free base): solid precipitation occurred
- approximate solubility in water as % ([4]; estimated from mg/mL assuming solution density 1 g/mL): 1.3%
- Solubility ([4]; pH = 6.8 buffer): 4100 µg/mL
- pH of saturated solution [5]: 4.34
- % DP (total degradation products) [6, 14]: 0.8 % area
- % DS (drug substance) [6, 14]: 99.2 % area
- % DP (total degradation products) [6, 15]: 0.7 % area
- % DS (drug substance) [6, 15]: 99.3 % area
- % DP (total degradation products) [6, 16]: 0.7 % area
- % DS (drug substance) [6, 16]: 99.3 % area
- % DP (total degradation products) [6, 17]: 0.8 % area
- % DS (drug substance) [6, 17]: 99.2 % area
- % DP (total degradation products) [6, 18]: 0.8 % area
- % DS (drug substance) [6, 18]: 99.2 % area
- % DP (total degradation products) [6, 19]: 0.7 % area
- % DS (drug substance) [6, 19]: 99.3 % area
- % DP (total degradation products) [6, 20]: 0.6 % area
- % DS (drug substance) [6, 20]: 99.4 % area
- % DP (total degradation products) ([6]; Standard, freshly prepared): 0.5 % area
- % DS (drug substance) ([6]; Standard, freshly prepared): 99.5 % area
- stability with all excipient mixtures tested, in words ([6]; after 2 weeks at 50° C./75% r.h.): very good stability
- Bulk stability (XRPD) (Solid-state stability; 80° C.): No change
- Bulk stability (XRPD) (Solid-state stability; 80° C./75% r.h.): No change
- % DP (total degradation products) (Solid-state stability; [21]): 0.80 % area
- assay (Solid-state stability; [21]): [99.35]
- % DP (total degradation products) (Solid-state stability; [22]): 1.48 % area
- assay (Solid-state stability; [22]): [97.36]
- % DP (total degradation products) (Solid-state stability; [23]): 1.20 % area
- assay (Solid-state stability; [23]): [100.0]
- % DP (total degradation products) (Solid-state stability; [24]): 1.16 % area
- CL (appearance) (Solid-state stability; [24]): B (B = slight discoloration)
- assay (Solid-state stability; [24]): [98.28]
- pH of saturated solution [7]: 5.38

Reference: patent US20110112308A1 (NOVARTIS AG, priority 2006, published 2011)
